# Results as given in patent US10729738B2, “Hindered disulfide drug conjugates” (priority 2015, dated 2020).
# Where a SMILES comes first, the peptide text is derived from it. [ ]: non-standard residue; d: D form. The star is where a group is joined. X6 = CC(C)(COC(=O)*)SSc1nc2c([N+](=O)[O-])cccc2[nH]1; Dolaproine = CO[C@@H]([C@@H]1CCCN1)[C@@H](C)C(=O)O; X11 = CC(C)(COC(=O)*)SSc1nc2ccc(C(=O)O)cc2[nH]1; X3 = CC(C)(COC(=O)*)SSc1ccc([N+](=O)[O-])cn1; Dil = CC[C@H](C)[C@H](NC)[C@@H](CC(=O)O)OC; X4 = CC(C)(COC(=O)*)SSc1nc2ncnc(N)c2[nH]1; X10 = CC(C)(COC(=O)*)SSc1nc2ncncc2[nH]1; X5 = CC(C)(COC(=O)*)SSc1nc2ncccc2[nH]1; X7 = CC(C)(COC(=O)*)SSc1nc2ccccc2[nH]1; X8 = CC(C)(COC(=O)*)SSc1nc2nccnc2[nH]1; X2 = C[C@@H](N*)[C@@H](O)c1ccccc1; X9 = CC(C)(COC(=O)*)SSc1nnn[nH]1; X1 = Cn1nnnc1SSC(C)(C)COC(=O)*; NMeV = CN[C@H](C(=O)O)C(C)C
# Experiments:
# [1] = molecular target: human serum albumin Cys-34 (Homo sapiens, UniProt P02768); assay: Conjugation of activated disulfide-MMAE molecules to human serum albumin (Conjugate Ratio, LC/MS); details: disulfide MMAE compound at 10 molar equivalents relative to HSA, 75 mM Tris pH 8.5, ~16 hours at room temperature
# Chain of human serum albumin Cys-34 (P02768 25-609): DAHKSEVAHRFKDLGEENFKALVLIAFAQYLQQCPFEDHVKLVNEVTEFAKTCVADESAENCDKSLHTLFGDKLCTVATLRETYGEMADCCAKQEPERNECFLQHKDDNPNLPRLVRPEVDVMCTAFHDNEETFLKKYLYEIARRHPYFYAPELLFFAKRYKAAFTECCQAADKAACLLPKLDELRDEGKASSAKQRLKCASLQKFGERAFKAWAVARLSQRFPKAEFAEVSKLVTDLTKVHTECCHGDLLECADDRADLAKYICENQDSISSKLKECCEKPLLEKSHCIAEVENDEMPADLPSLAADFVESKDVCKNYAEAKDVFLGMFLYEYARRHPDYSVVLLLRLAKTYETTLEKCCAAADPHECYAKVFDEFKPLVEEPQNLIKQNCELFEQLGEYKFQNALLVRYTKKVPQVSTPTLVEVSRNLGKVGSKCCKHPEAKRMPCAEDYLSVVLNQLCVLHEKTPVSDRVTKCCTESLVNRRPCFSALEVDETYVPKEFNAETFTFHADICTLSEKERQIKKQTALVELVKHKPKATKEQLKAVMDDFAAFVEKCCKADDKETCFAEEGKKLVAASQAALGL
# Protocol: In a first evaluation, MMAE was conjugated to human serum albumin (HSA). […] This Cys residue is blocked as a mixed disulfide with Cys or glutathione, preventing complete conjugation of other molecules to this residue. […] Conjugate reactions were analyzed by LC/MS. The extent of the expected MMAE-HSA conjugate formed during the reaction is represented by the “Conjugate Ratio”, measured by dividing the abundance of the MS peak for the MMAE-HSA conjugate by the sum total abundance of all peaks observed. The ideal value for the Conjugate Ratio is 1.0. The results are reported in table 31 below wherein the wavy line for the leaving group represents the point of attachment to the disulfide bond, and “HSA CR” refers to human serum albumin conjugate ratio.
# [2] = molecular target: T1, penetratin (AntP) peptide (Drosophila melanogaster, UniProt P02833); assay: Conjugation of activated disulfide-MMAE molecules to penetratin (AntP) peptide (% Product); details: peptide 25 uM, disulfide MMAE 5 equivalents, 75 mM Tris pH 8.5 and 10% DMF, ~16 hours at room temperature, UV peak area
# T1 construct: C-terminal amide (CONH2); made in house; host or cells: chemical synthesis (Fmoc solid-phase peptide synthesis)
# Protocol: In a second evaluation, MMAE was conjugated to penetratin (AntP) peptide. The AntP peptide, with sequence H2N-[…]-CONH2 (SEQ ID NO:1) bearing a free Cys thiol at the C-terminus, was synthesized via standard Fmoc solid-phase peptide synthesis methods. This peptide was conjugated at a concentration of 25 uM to disulfide MMAE molecules with varying leaving groups (5 equivalents) in a buffered solution composed of 75 mM Tris, pH 8.5 and 10% DMF for ˜16 hours at room temperature. Extent of the reaction was measured by dividing the integrated area for the UV peak of the MMAE-AntP conjugate by the sum of all peaks (“% Product”). The ideal value for % Product is 100%. The results are reported in table 31 below wherein the wavy line for the leaving group represent the point of attachment to the disulfide bond, and “AntP % P” refers to penetratin (AntP) peptide % product.
# [3] = In vitro disulfide cleavage and immolation by incubation with cysteine or glutathione (LC/MS); assay type: physicochemical; details: for Percentage of all products: pH 7.0, 37° C.
# Protocol: In a first phase of the experiment, disulfide cleavage and immolation by incubation with cysteine and glutathione—with the thiol concentrations mimic those in plasma and cancer cells—was investigated using unconjugated small molecule model systems with para-nitro-pyridyl disulfide-containing linker drug analogs 1, 2 and 11 below. In particular, cleavage and immolation was evaluated in vitro by incubation at […] with cysteine ([…] or 200 μM) or glutathione (GSH, 4 mM) in 100 mM Tris buffer pH 7.0 containing 5% methanol at 37° C. Aliquots were taken at specified time points and the samples were analyzed by LC/MS on Sciex TripleTOF 5600 on a Hypersil Gold C18 column (100×2.1, […], Thermo Scientific). The column was eluted by a gradient of buffer A (0.1% formic acid in 10 mM ammonium acetate) to buffer B (0.1% formic acid in 10 mM ammonium acetate in 90% acetonitrile), 5% B 0-0.5 min, 5-25% B 0.5-8 min, 25-75% B 8-13 min, and 75-95% B 13-13.5 min, 95% B 13.5-14.5 min, 95-5% B 14.5-15 min at 0.4 mL/min. Under these conditions, para-nitropyridyl thiol was eluted at 5.3 min. All products (compounds 1, 2, 11, 3a, 3b, 4a, 4b, 12a, 12 b, 6, 7, 13 and 8) were separated and characterized by LC/MS/MS in a positive ESI ion mode. All analytes had the protonated molecular MH^+ as the major species with little source fragmentation. Full scan accurate mass peak areas were used to estimate relative abundance of each component and the disappearance of 1, 2, and 11 estimated relative full scan peak areas was consistent with that estimated based on the relative abundance compared to time 0 by MS or UV. The results are reported in Table 15 below and the analytical results are presented in Table 16 below where “Cmpd” refers to compound, “RT” refers to retention time in minutes, and “Calc. Mass” refers to calculated mass. The relative abundance of disulfide cleavage and immolation products over time were evaluated and are disclosed in FIGS. 12A to 12C, 13A to 13C, 14A to 14C and 15A to 15C where the products were monitored by LC/MS from incubations of linker drugs 1, 2, and 11 at pH 7.0 and 37° C. in the presence of: 0.2 mM cysteine (FIGS. 12A, 12B and 12C); 0.03 mM cysteine (FIGS. 13A, 13B and 13C); 4 mM glutathione (FIGS. 14A, 14B and 14C); and 0.03 mM glutathione (FIGS. 15A, 15B and 15C). In FIGS. 12A to 12C, 13A to 13C, 14A to 14C and 15A to 15C, compound reference numbers 1, 2, 3a, 3b, 4a, 4b, 6, 7, 8, 11, 12a, 12b and 13 correspond to the structures below.
smiles,measurement,setting,value
CC[C@H](C)[C@@H]([C@@H](CC(=O)N1CCC[C@H]1[C@H](OC)[C@@H](C)C(=O)N[C@H](C)[C@@H](O)c1ccccc1)OC)N(C)C(=O)[C@@H](NC(=O)[C@H](C(C)C)N(C)C(=O)OCC(C)(C)SSc1nnnn1C)C(C)C (X1-[NMeV]V[Dil][Dolaproine]-X2),HAS CR (HSA Conjugation Ratio),[1],0.86
same,AntP % P (penetratin (AntP) peptide % product),[2],32%
CC[C@H](C)[C@@H]([C@@H](CC(=O)N1CCC[C@H]1[C@H](OC)[C@@H](C)C(=O)N[C@H](C)[C@@H](O)c1ccccc1)OC)N(C)C(=O)[C@@H](NC(=O)[C@H](C(C)C)N(C)C(=O)OCC(C)(C)SSc1ccc([N+](=O)[O-])cn1)C(C)C (X3-[NMeV]V[Dil][Dolaproine]-X2),HAS CR (HSA Conjugation Ratio),[1],0.11
same,AntP % P (penetratin (AntP) peptide % product),[2],14%
CC[C@H](C)[C@@H]([C@@H](CC(=O)N1CCC[C@H]1[C@H](OC)[C@@H](C)C(=O)N[C@H](C)[C@@H](O)c1ccccc1)OC)N(C)C(=O)[C@@H](NC(=O)[C@H](C(C)C)N(C)C(=O)OCC(C)(C)SSc1nc2ncnc(N)c2[nH]1)C(C)C (X4-[NMeV]V[Dil][Dolaproine]-X2),HAS CR (HSA Conjugation Ratio),[1],0.23
same,AntP % P (penetratin (AntP) peptide % product),[2],21%
CC[C@H](C)[C@@H]([C@@H](CC(=O)N1CCC[C@H]1[C@H](OC)[C@@H](C)C(=O)N[C@H](C)[C@@H](O)c1ccccc1)OC)N(C)C(=O)[C@@H](NC(=O)[C@H](C(C)C)N(C)C(=O)OCC(C)(C)SSc1nc2ncccc2[nH]1)C(C)C (X5-[NMeV]V[Dil][Dolaproine]-X2),HAS CR (HSA Conjugation Ratio),[1],0.84
same,AntP % P (penetratin (AntP) peptide % product),[2],12%
CC[C@H](C)[C@@H]([C@@H](CC(=O)N1CCC[C@H]1[C@H](OC)[C@@H](C)C(=O)N[C@H](C)[C@@H](O)c1ccccc1)OC)N(C)C(=O)[C@@H](NC(=O)[C@H](C(C)C)N(C)C(=O)OCC(C)(C)SSc1nc2c([N+](=O)[O-])cccc2[nH]1)C(C)C (X6-[NMeV]V[Dil][Dolaproine]-X2),HAS CR (HSA Conjugation Ratio),[1],0.65
same,AntP % P (penetratin (AntP) peptide % product),[2],26%
CC[C@H](C)[C@@H]([C@@H](CC(=O)N1CCC[C@H]1[C@H](OC)[C@@H](C)C(=O)N[C@H](C)[C@@H](O)c1ccccc1)OC)N(C)C(=O)[C@@H](NC(=O)[C@H](C(C)C)N(C)C(=O)OCC(C)(C)SSc1nc2ccccc2[nH]1)C(C)C (X7-[NMeV]V[Dil][Dolaproine]-X2),HAS CR (HSA Conjugation Ratio),[1],0.52
same,AntP % P (penetratin (AntP) peptide % product),[2],18%
CC[C@H](C)[C@@H]([C@@H](CC(=O)N1CCC[C@H]1[C@H](OC)[C@@H](C)C(=O)N[C@H](C)[C@@H](O)c1ccccc1)OC)N(C)C(=O)[C@@H](NC(=O)[C@H](C(C)C)N(C)C(=O)OCC(C)(C)SSc1nc2nccnc2[nH]1)C(C)C (X8-[NMeV]V[Dil][Dolaproine]-X2),HAS CR (HSA Conjugation Ratio),[1],0.63
same,AntP % P (penetratin (AntP) peptide % product),[2],36%
CC[C@H](C)[C@@H]([C@@H](CC(=O)N1CCC[C@H]1[C@H](OC)[C@@H](C)C(=O)N[C@H](C)[C@@H](O)c1ccccc1)OC)N(C)C(=O)[C@@H](NC(=O)[C@H](C(C)C)N(C)C(=O)OCC(C)(C)SSc1nnn[nH]1)C(C)C (X9-[NMeV]V[Dil][Dolaproine]-X2),HAS CR (HSA Conjugation Ratio),[1],0.09
same,AntP % P (penetratin (AntP) peptide % product),[2],1.9%
CC[C@H](C)[C@@H]([C@@H](CC(=O)N1CCC[C@H]1[C@H](OC)[C@@H](C)C(=O)N[C@H](C)[C@@H](O)c1ccccc1)OC)N(C)C(=O)[C@@H](NC(=O)[C@H](C(C)C)N(C)C(=O)OCC(C)(C)SSc1nc2ncncc2[nH]1)C(C)C (X10-[NMeV]V[Dil][Dolaproine]-X2),HAS CR (HSA Conjugation Ratio),[1],0.6
same,AntP % P (penetratin (AntP) peptide % product),[2],34%
CC[C@H](C)[C@@H]([C@@H](CC(=O)N1CCC[C@H]1[C@H](OC)[C@@H](C)C(=O)N[C@H](C)[C@@H](O)c1ccccc1)OC)N(C)C(=O)[C@@H](NC(=O)[C@H](C(C)C)N(C)C(=O)OCC(C)(C)SSc1nc2ccc(C(=O)O)cc2[nH]1)C(C)C (X11-[NMeV]V[Dil][Dolaproine]-X2),HAS CR (HSA Conjugation Ratio),[1],0.64
same,AntP % P (penetratin (AntP) peptide % product),[2],20%
C=C1C[C@H]2C=Nc3cc(OCCCCCOc4cc5c(cc4OC)C(=O)N4CC(=C)C[C@H]4C(O)N5C(=O)OCC4(SSc5ccc([N+](=O)[O-])cn5)CCC4)c(OC)cc3C(=O)N2C1 (stereo partly drawn) [Compound 11],Percentage of all products,"[3]; 30 μM cysteine, 1 h",21.2%
same,Percentage of all products,"[3]; 30 μM cysteine, 4 h",15.5%
same,Percentage of all products,"[3]; 30 μM cysteine, 24 h",4.8%
same,Percentage of all products,"[3]; 200 μM cysteine, 1 h",6.5%
same,Percentage of all products,"[3]; 200 μM cysteine, 4 h",3.6%
same,Percentage of all products,"[3]; 200 μM cysteine, 24 h",1.5%
same,Percentage of all products,"[3]; 4 mM GSH, 1 h",9.1%
same,Percentage of all products,"[3]; 4 mM GSH, 4 h",4.5%
same,Percentage of all products,"[3]; 4 mM GSH, 24 h",0.7%
C=C1C[C@H]2C=Nc3cc(OCCCCCOc4cc5c(cc4OC)C(=O)N4CC(=C)C[C@H]4C(O)N5C(=O)OCC4(SSC[C@H](N)C(=O)O)CCC4)c(OC)cc3C(=O)N2C1 (stereo partly drawn) [Compound 12a],Percentage of all products,"[3]; 30 μM cysteine, 1 h",73.5%
same,Percentage of all products,"[3]; 30 μM cysteine, 4 h",74.8%
same,Percentage of all products,"[3]; 30 μM cysteine, 24 h",66.7%
same,Percentage of all products,"[3]; 200 μM cysteine, 1 h",21.5%
same,Percentage of all products,"[3]; 200 μM cysteine, 4 h",11.6%
same,Percentage of all products,"[3]; 200 μM cysteine, 24 h",0.8%
C=C1C[C@H]2C=Nc3cc(OCCCCCOc4cc5c(cc4OC)C(=O)N4CC(=C)C[C@H]4C(O)N5C(=O)OCC4(SSC[C@H](NC(=O)CC[C@H](N)C(=O)O)C(=O)NCC(=O)O)CCC4)c(OC)cc3C(=O)N2C1 (stereo partly drawn) [Compound 12b],Percentage of all products,"[3]; 4 mM GSH, 1 h",1.6%
same,Percentage of all products,"[3]; 4 mM GSH, 4 h",0.2%
same,Percentage of all products,"[3]; 4 mM GSH, 24 h",0%
C=C1C[C@H]2C=Nc3cc(OCCCCCOc4cc5c(cc4OC)C(=O)N4CC(=C)C[C@H]4C(O)N5C(=O)OCC4(S)CCC4)c(OC)cc3C(=O)N2C1 (stereo partly drawn) [Compound 13],Percentage of all products,"[3]; 30 μM cysteine, 1 h",1.3%
same,Percentage of all products,"[3]; 30 μM cysteine, 4 h",1.1%
same,Percentage of all products,"[3]; 30 μM cysteine, 24 h",0.1%
same,Percentage of all products,"[3]; 200 μM cysteine, 1 h",3.2%
same,Percentage of all products,"[3]; 200 μM cysteine, 4 h",1.6%
same,Percentage of all products,"[3]; 200 μM cysteine, 24 h",0%
same,Percentage of all products,"[3]; 4 mM GSH, 1 h",2.3%
same,Percentage of all products,"[3]; 4 mM GSH, 4 h",0%
same,Percentage of all products,"[3]; 4 mM GSH, 24 h",0%
same,Immolation of thiol intermediate,[3]; incubation with cysteine or glutathione,efficient immolation
